Test results reported in patent US6342604B1, “Substitute pyrimidine compounds and the use thereof” (BASF Aktiengesellschaft, priority 1994, dated 2002).
Where two headings read alike, the source gives them in different places.

Target: T1, human D3 receptor (Homo sapiens, UniProt P35462)
T1 construct: host or cells: CCL 1.3 mouse fibroblasts
Experiment: D3 receptor binding assay (125I-iodosulpiride displacement)
Conditions: for Selectivity Ki D2/Ki D3: ratio of Ki D2 (3H-spiperone) to Ki D3 (125I-sulpiride)
Method: Cloned human D3 receptor-expressing CCL 1.3 mouse fibroblasts obtained from Res. Biochemicals Internat. One Strathmore Rd., Natick, Mass.
After 48 h, the cells were washed with PBS and incubated with 0.05% trypsin-containing PBS for 5 min. Neutralization with medium was then carried out, and the cells were collected by centrifugation at 300 xg. To lyze the cells, the pellet was briefly washed with lysis buffer (5 mM tris-HCl, pH 7.4, with 10% glycerol) and then incubated in a concentration of 10^7 cells/ml of lysis buffer at 4° C. for 30 min. The cells were centrifuged at 200 xg for 10 min and the pellet was stored in liquid nitrogen.
The non-specific binding was determined using 10^−6 M spiperone.
After 60 min, the free and the bound radioligand was separated by filtration through GF/B glass fiber filters (Whatman, England) on a Skatron cell collector (Skatron, Lier, Norway), and the filters were washed with ice-cold tris-HCl buffer, pH 7.4. The radioactivity collected on the filters was quantified using a Packard 2200 CA liquid scintillation counter.
The Ki values were determined by non-linear regression analysis using the LIGAND program.

[1] = cloned human D3 receptor, CCL 1.3 mouse fibroblast membranes, 0.1 nM 125iodosulpiride, read-out: Receptor binding D3 125I-sulpiride Ki

T1 sequence (P35462 whole entry): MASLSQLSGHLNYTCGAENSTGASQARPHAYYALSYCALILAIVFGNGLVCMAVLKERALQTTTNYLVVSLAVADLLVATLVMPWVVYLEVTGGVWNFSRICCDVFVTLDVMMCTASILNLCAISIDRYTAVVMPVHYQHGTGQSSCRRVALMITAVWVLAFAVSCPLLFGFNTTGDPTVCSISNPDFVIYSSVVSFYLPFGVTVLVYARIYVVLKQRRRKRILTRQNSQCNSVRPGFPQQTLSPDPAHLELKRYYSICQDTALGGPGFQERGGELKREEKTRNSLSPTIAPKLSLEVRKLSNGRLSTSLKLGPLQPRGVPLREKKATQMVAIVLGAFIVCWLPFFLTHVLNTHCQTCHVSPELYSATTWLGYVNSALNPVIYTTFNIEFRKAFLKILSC

Ki [1] [nM] | Structure (SMILES) | Ki [nM] | Selectivity Ki D2/Ki D3
 | Oc1ccnc(SCCCN2CCN(c3cccc(C(F)(F)F)c3)CC2)n1 [Example 12] | 4.2 | 85
2.3 | Oc1ccnc(SC/C=C/CN2CCN(c3cccc(C(F)(F)F)c3)CC2)n1 [Example 13] |  | 61
2.8 | CC(C)c1cccc(N2CCN(CCCSc3nccc(O)n3)CC2)c1 [Example 17] |  | 71
 | Oc1ccnc(SCCCN2CC=C(c3cccc(C(F)(F)F)c3)CC2)n1 [Example 19] | 3 | 58
